Assay results: patent US5416191A, “Bradykinin antagonists” (Cortech, Inc., priority 1993, dated 1995)
Peptide text beside a SMILES is read from it.

Assays:
[1] = molecular target: T1, bradykinin receptor of the B2 class (rat uterus) (Rattus norvegicus, UniProt P25023); assay: Rat uterus (RU) in vitro, antagonism of bradykinin; conditions: Table C, rat uterus
T1 construct: concentration effect curves to bradykinin (BK) on rat uterus in vitro; from tissue; host or cells: rat uterus
T1 sequence (P25023 1-396): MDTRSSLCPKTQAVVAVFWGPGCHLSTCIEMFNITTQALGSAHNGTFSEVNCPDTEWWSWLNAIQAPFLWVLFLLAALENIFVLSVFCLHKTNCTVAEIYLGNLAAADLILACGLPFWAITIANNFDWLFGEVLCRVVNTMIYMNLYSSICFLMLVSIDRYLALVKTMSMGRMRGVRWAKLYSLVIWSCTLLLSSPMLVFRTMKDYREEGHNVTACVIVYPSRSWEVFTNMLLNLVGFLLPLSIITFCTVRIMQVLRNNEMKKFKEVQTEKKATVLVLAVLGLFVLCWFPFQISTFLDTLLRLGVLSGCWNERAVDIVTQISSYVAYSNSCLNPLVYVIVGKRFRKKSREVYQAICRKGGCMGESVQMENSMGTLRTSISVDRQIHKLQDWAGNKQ
Outline: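 Isolated rat uterus; bradykinin antagonism expressed as pA2, the negative log molar antagonist concentration that halves agonist potency. After the highest antagonist concentration, tissues were washed extensively and percent recovery was recorded.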

[2] = molecular target: T2, bradykinin receptor of the B2 class (guinea-pig ileum) (Cavia porcellus, UniProt O70526); conditions: Table B; Cys position scan, monomers and BMH dimers
T2 sequence (O70526 1-372): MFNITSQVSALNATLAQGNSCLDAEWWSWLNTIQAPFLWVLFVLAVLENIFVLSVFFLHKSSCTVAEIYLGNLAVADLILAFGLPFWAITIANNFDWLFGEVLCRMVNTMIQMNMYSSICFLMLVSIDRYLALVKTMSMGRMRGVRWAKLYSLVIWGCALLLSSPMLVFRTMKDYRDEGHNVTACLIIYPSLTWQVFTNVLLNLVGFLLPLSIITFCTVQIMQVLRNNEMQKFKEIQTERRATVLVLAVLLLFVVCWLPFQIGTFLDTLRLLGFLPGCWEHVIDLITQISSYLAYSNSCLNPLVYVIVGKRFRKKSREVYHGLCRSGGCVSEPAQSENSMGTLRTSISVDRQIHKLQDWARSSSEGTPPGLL

SMILES	pA2 MONOMER ([1]; P.A. = Partial Agonist)	pA2 GUINEA PIG ILEUM [2]	% REC MONOMER [1] [%]	Kb ([1]; P.A. = Partial Agonist, read-out: pA2 MONOMER (converted)) [nM]	pA2 DIMER [1]
CC(C)C[C@H](NC(=O)[C@@H](CS)NC(=O)[C@H](CO)NC(=O)[C@H](Cc1ccccc1)NC(=O)CNC(=O)[C@@H]1C[C@@H](O)CN1C(=O)[C@@H]1CCCN1C(=O)[C@H](CCCNC(=N)N)NC(=O)[C@H](N)CCCNC(=N)N)C(=O)N[C@@H](CCCNC(=N)N)C(=O)O [CP-0146] (HELM PEPTIDE1{[dR].R.P.[Hyp].G.F.S.[dC].L.R}$$$$V2.0)	Inactive	Inactive			
N=C(N)NCCC[C@@H](N)C(=O)N[C@@H](CCCNC(=N)N)C(=O)N1CCC[C@H]1C(=O)N1C[C@H](O)C[C@H]1C(=O)NCC(=O)N[C@@H](Cc1ccccc1)C(=O)N[C@@H](CO)C(=O)N[C@H](Cc1ccccc1)C(=O)N[C@@H](CS)C(=O)N[C@@H](CCCNC(=N)N)C(=O)O [CP-0147] (HELM PEPTIDE1{[dR].R.P.[Hyp].G.F.S.[dF].C.R}$$$$V2.0)	Inactive	Inactive			
CC(C)C[C@H](NC(=O)[C@@H](Cc1ccccc1)NC(=O)[C@H](CO)NC(=O)[C@H](Cc1ccccc1)NC(=O)CNC(=O)[C@@H]1C[C@@H](O)CN1C(=O)[C@@H]1CCCN1C(=O)[C@H](CCCNC(=N)N)NC(=O)[C@H](N)CCCNC(=N)N)C(=O)N[C@@H](CS)C(=O)O [CP-0148] (HELM PEPTIDE1{[dR].R.P.[Hyp].G.F.S.[dF].L.C}$$$$V2.0)	Inactive	Inactive	100	200	
CC(C)C[C@H](NC(=O)[C@H](CSC1CC(=O)N(CCCCCCN2C(=O)CC(SC[C@H](NC(=O)[C@H](CO)NC(=O)[C@H](Cc3ccccc3)NC(=O)CNC(=O)[C@@H]3C[C@@H](O)CN3C(=O)[C@@H]3CCCN3C(=O)[C@H](CCCNC(=N)N)NC(=O)[C@H](N)CCCNC(=N)N)C(=O)N[C@@H](CC(C)C)C(=O)N[C@@H](CCCNC(=N)N)C(=O)O)C2=O)C1=O)NC(=O)[C@H](CO)NC(=O)[C@H](Cc1ccccc1)NC(=O)CNC(=O)[C@@H]1C[C@@H](O)CN1C(=O)[C@@H]1CCCN1C(=O)[C@H](CCCNC(=N)N)NC(=O)[C@H](N)CCCNC(=N)N)C(=O)N[C@@H](CCCNC(=N)N)C(=O)O (some centres unmarked) [CP-0157] (HELM PEPTIDE1{[dR].R.P.[Hyp].G.F.S.C.L.R}|PEPTIDE2{[dR].R.P.[Hyp].G.F.S.C.L.R}|CHEM1{[O=C1CC([*:1])C(=O)N1CCCCCCN1C(=O)CC([*:2])C1=O]}$PEPTIDE1,CHEM1,8:R3-1:R1|PEPTIDE2,CHEM1,8:R3-1:R2$$$V2.0)		Inactive			Inactive
CC(C)C[C@H](NC(=O)[C@@H](CSC1CC(=O)N(CCCCCCN2C(=O)CC(SC[C@@H](NC(=O)[C@H](CO)NC(=O)[C@H](Cc3ccccc3)NC(=O)CNC(=O)[C@@H]3C[C@@H](O)CN3C(=O)[C@@H]3CCCN3C(=O)[C@H](CCCNC(=N)N)NC(=O)[C@H](N)CCCNC(=N)N)C(=O)N[C@@H](CC(C)C)C(=O)N[C@@H](CCCNC(=N)N)C(=O)O)C2=O)C1=O)NC(=O)[C@H](CO)NC(=O)[C@H](Cc1ccccc1)NC(=O)CNC(=O)[C@@H]1C[C@@H](O)CN1C(=O)[C@@H]1CCCN1C(=O)[C@H](CCCNC(=N)N)NC(=O)[C@H](N)CCCNC(=N)N)C(=O)N[C@@H](CCCNC(=N)N)C(=O)O (some centres unmarked) [CP-0158] (HELM PEPTIDE1{[dR].R.P.[Hyp].G.F.S.[dC].L.R}|PEPTIDE2{[dR].R.P.[Hyp].G.F.S.[dC].L.R}|CHEM1{[O=C1CC([*:1])C(=O)N1CCCCCCN1C(=O)CC([*:2])C1=O]}$PEPTIDE1,CHEM1,8:R3-1:R1|PEPTIDE2,CHEM1,8:R3-1:R2$$$V2.0)		Inactive			Inactive
N=C(N)NCCC[C@@H](N)C(=O)N[C@@H](CCCNC(=N)N)C(=O)N1CCC[C@H]1C(=O)N1C[C@H](O)C[C@H]1C(=O)NCC(=O)N[C@@H](Cc1ccccc1)C(=O)N[C@@H](CO)C(=O)N[C@H](Cc1ccccc1)C(=O)N[C@@H](CSC1CC(=O)N(CCCCCCN2C(=O)CC(SC[C@H](NC(=O)[C@@H](Cc3ccccc3)NC(=O)[C@H](CO)NC(=O)[C@H](Cc3ccccc3)NC(=O)CNC(=O)[C@@H]3C[C@@H](O)CN3C(=O)[C@@H]3CCCN3C(=O)[C@H](CCCNC(=N)N)NC(=O)[C@H](N)CCCNC(=N)N)C(=O)N[C@@H](CCCNC(=N)N)C(=O)O)C2=O)C1=O)C(=O)N[C@@H](CCCNC(=N)N)C(=O)O (some centres unmarked) [CP-0159] (HELM PEPTIDE1{[dR].R.P.[Hyp].G.F.S.[dF].C.R}|PEPTIDE2{[dR].R.P.[Hyp].G.F.S.[dF].C.R}|CHEM1{[O=C1CC([*:1])C(=O)N1CCCCCCN1C(=O)CC([*:2])C1=O]}$PEPTIDE1,CHEM1,9:R3-1:R1|PEPTIDE2,CHEM1,9:R3-1:R2$$$V2.0)		Inactive			Inactive
CC(C)C[C@H](NC(=O)[C@@H](Cc1ccccc1)NC(=O)[C@H](CO)NC(=O)[C@H](Cc1ccccc1)NC(=O)CNC(=O)[C@@H]1C[C@@H](O)CN1C(=O)[C@@H]1CCCN1C(=O)[C@H](CCCNC(=N)N)NC(=O)[C@H](N)CCCNC(=N)N)C(=O)N[C@@H](CSC1CC(=O)N(CCCCCCN2C(=O)CC(SC[C@H](NC(=O)[C@H](CC(C)C)NC(=O)[C@@H](Cc3ccccc3)NC(=O)[C@H](CO)NC(=O)[C@H](Cc3ccccc3)NC(=O)CNC(=O)[C@@H]3C[C@@H](O)CN3C(=O)[C@@H]3CCCN3C(=O)[C@H](CCCNC(=N)N)NC(=O)[C@H](N)CCCNC(=N)N)C(=O)O)C2=O)C1=O)C(=O)O (some centres unmarked) [CP-0160] (HELM PEPTIDE1{[dR].R.P.[Hyp].G.F.S.[dF].L.C}|PEPTIDE2{[dR].R.P.[Hyp].G.F.S.[dF].L.C}|CHEM1{[O=C1CC([*:1])C(=O)N1CCCCCCN1C(=O)CC([*:2])C1=O]}$PEPTIDE1,CHEM1,10:R3-1:R1|PEPTIDE2,CHEM1,10:R3-1:R2$$$V2.0)		Inactive			Inactive
CC(C)C[C@H](NC(=O)[C@@H](Cc1ccccc1)NC(=O)[C@H](CO)NC(=O)[C@H](Cc1ccccc1)NC(=O)[C@@H](CS)NC(=O)[C@@H]1C[C@@H](O)CN1C(=O)[C@@H]1CCCN1C(=O)[C@H](CCCNC(=N)N)NC(=O)[C@H](N)CCCNC(=N)N)C(=O)N[C@@H](CCCNC(=N)N)C(=O)O [CP-0173] (HELM PEPTIDE1{[dR].R.P.[Hyp].[dC].F.S.[dF].L.R}$$$$V2.0)	Inactive	Inactive			
CC(C)C[C@H](NC(=O)[C@@H](Cc1ccccc1)NC(=O)[C@H](CO)NC(=O)[C@H](Cc1ccccc1)NC(=O)[C@@H](CSC1CC(=O)N(CCCCCCN2C(=O)CC(SC[C@@H](NC(=O)[C@@H]3C[C@@H](O)CN3C(=O)[C@@H]3CCCN3C(=O)[C@H](CCCNC(=N)N)NC(=O)[C@H](N)CCCNC(=N)N)C(=O)N[C@@H](Cc3ccccc3)C(=O)N[C@@H](CO)C(=O)N[C@H](Cc3ccccc3)C(=O)N[C@@H](CC(C)C)C(=O)N[C@@H](CCCNC(=N)N)C(=O)O)C2=O)C1=O)NC(=O)[C@@H]1C[C@@H](O)CN1C(=O)[C@@H]1CCCN1C(=O)[C@H](CCCNC(=N)N)NC(=O)[C@H](N)CCCNC(=N)N)C(=O)N[C@@H](CCCNC(=N)N)C(=O)O (some centres unmarked) [CP-0203] (HELM PEPTIDE1{[dR].R.P.[Hyp].[dC].F.S.[dF].L.R}|PEPTIDE2{[dR].R.P.[Hyp].[dC].F.S.[dF].L.R}|CHEM1{[O=C1CC([*:1])C(=O)N1CCCCCCN1C(=O)CC([*:2])C1=O]}$PEPTIDE1,CHEM1,5:R3-1:R1|PEPTIDE2,CHEM1,5:R3-1:R2$$$V2.0)		Inactive			Inactive
